{
  "source": "patent US9956304B2",
  "about": "“Contrast agents, methods for preparing contrast agents, and methods of imaging” (GEORGIA STATE UNIVERSITY RESEARCH FOUNDATION, INC., priority 2012, dated 2018)",
  "key": {"[1]": {"conditions": "cited from earlier work"}, "[2]": {"experiment": "Fura-2 competition assay (Gd3+ loaded Fura-2)", "assay_type": "binding", "conditions": "Gd^3+ loaded Fura-2 20 μM, protein 10-20 μM", "protocol": "To test our hypothesis and screening ProCA candidates with highest thermodynamic stability, Gd^3+ binding affinity and metal selectivity of ProCAs were measured by metal-chelator buffer system. ProCA3 variants were purified using Henzl's method with large modification. […] The Tb^3+-binding affinity of calcium-binding protein was measured by Tb^3+-chelator buffer system. Free metal concentration was carefully controlled by the ratio of metal with chelators from 0 to 1. After measured the Kd of Tb^3+, the Kd of Gd^3+ to ProCA is measured by Gd^3+ competition methods. […] To better understanding the properties of our contrast agents, we introduce a tryptophan residue into the ProCA3. […] Thus, D, D, D, E, E in position 1, 3, 5, 9, 12 of EF-hand is the optimized key residues to achieve high Gd^3+ binding affinity."}, "integrin": {"target": "integrin", "conditions": "read-out: binding affinity between RGD and integrin; cited from earlier work"}, "[3]": {"conditions": "mouse, in vivo, iv"}, "[4]": {"conditions": "kidney; Gd-DTPA 0.2 mmol/kg, Gd-ProCA32 0.02 mmol/kg"}, "[5]": {"experiment": "In vivo MRI detection limit (kidney/liver enhancement)", "parameters": "species or system mice", "conditions": "1.6 μmol/kg"}, "[6]": {"experiment": "Organ distribution and accumulation of Gd3+ by ICP-OES", "conditions": "10 minutes post i.v. injection"}, "[7]": {"conditions": "mice; cited from earlier work"}, "[8]": {"experiment": "Arterial input function study, 9.4 T", "conditions": "mouse, in vivo"}, "[9]": {"conditions": "human, cited from earlier work"}, "[10]": {"conditions": "read-out: Kd to Gd^3+ (other's result); cited from earlier work"}, "[11]": {"experiment": "Gd3+ Kd by FLUO-5N titration and competition", "assay_type": "binding", "conditions": "2 mM nitrilotriacetate buffer; read-out: Kd to Gd^3+", "protocol": "The buffer system contained 2 mM nitrilotriacetate. The fluorescence signal of FLUO-5N increased till it was up to saturation state. The fluorescence signal intensity plots were fitted by hill equation.\nThe Kd of ProCA1 variants to Gd^3+ was determined by the competition between ProCA1 variants and FLUO-5N. When the concentrations of FLUO-5N and Gd^3+ were fixed, ProCA1 variants were gradually added to the sample solution to compete Gd^3+ with FLUO-5N.\nWhere Kd1 is the dissociation constant for FLUO-5N, [FLUO-5N]T is the total concentration of FLUO-5N, Kapp is the apparent dissociation constant for protein and Kd2 is the dissociation constant for protein."}, "[12]": {"conditions": "in vivo; cited from earlier work"}, "[13]": {"tested_on": "uveal melanoma metastasis in liver", "parameters": "species or system PEDF knockout mice", "conditions": "mouse, in vivo"}, "[14]": {"experiment": "T1- and T2-weighted MRI of liver and blood vessels", "assay_type": "in vivo, mice", "conditions": "mouse, in vivo", "protocol": "Because the enhanced T1- and T2-weighted images have different effects of imaging contrast (brighter or darker, respectively), there is an enhanced probability of detecting the targeted tumor tissue. In contrast, the currently available approved liver contrast agents such as Eovist® have a very short fast phase (sec.) and liver uptake phase (approximately 3 min) in human. The mouse halftime is much shorter. Due this limitation, with these agents, it is not possible to obtain both high quality imaging for small animal. For human, their applications are also limited by their low relaxivity and short half-life. It is possible to obtain very high quality imaging by applying our contrast agent to both low and high field strengths such as 0.47-9.4 T.\nLonger blood circulation of ProCA will benefit the MRI guided intervention therapy […], since such therapy usually performed for a very long time. Long blood circulation time of ProCA32 in blood also promising for the application of DCE-MRI. Arterial input function (AIF) in DCE-MRI experiment is the key experiment for successful calculating tumor permeability. However, it is hard to accurate determine AIF of current clinically available MRI contrast agents, since the blood circulation time of current clinically available MRI contrast agents is too short. […]"}, "[15]": {"conditions": "mouse, in vivo; cited from earlier work"}},
  "note": "Like-named read-outs stand apart in the source and are kept apart here.",
  "data": [
    {"compound": "O=C([O-])CN(CCN(CC(=O)[O-])CC(=O)[O-])CCN(CC(=O)[O-])CC(=O)[O-].[Na+].[Na+].[Na+].[Zn+2]", "note": "[Zn-DTPA]", "values": [
      {"measurement": "selectivity of Zn^2+ over Gd^3+", "setting": "[1]", "result": 4.17}
    ]},
    {"compound": "calmodulin", "values": [
      {"measurement": "Gd^3+ affinity relative to Fura-2", "setting": "[2]", "result": "does not shift the wavelength of Fura-2"}
    ]},
    {"compound": "Arg-Gly-Asp [RGD]", "values": [
      {"measurement": "Kd", "setting": "integrin", "result": "~1000", "unit": "nM"}
    ]},
    {"compound": "[Cl][Gd]([Cl])[Cl]", "note": "[GdCl3]", "values": [
      {"measurement": "long term Gd^3+ accumulation in organs", "setting": "[3]", "result": "much higher accumulation in bone, liver and spleen"},
      {"measurement": "organ distribution of Gd^3+", "setting": "[3]", "result": "mainly distributed in the lung and spleen"}
    ]},
    {"compound": "O=C([O-])CN(CCN(CC(=O)[O-])CC(=O)O)CCN(CC(=O)[O-])CC(=O)O.[Gd+3]", "note": "[Gd-DTPA]", "values": [
      {"measurement": "time to maximum cortex enhancement", "setting": "[4]", "result": "≤ 1", "unit": "min"},
      {"measurement": "time to maximum medulla enhancement", "setting": "[4]", "result": "≤ 1", "unit": "min"},
      {"measurement": "kidney enhancement under MRI", "setting": "[5]", "result": "do not show any significant kidney enhancement"},
      {"measurement": "organ distribution of Gd^3+", "setting": "[6]", "result": "mainly accumulated in kidney"},
      {"measurement": "blood half-life", "setting": "[7]", "result": 2, "unit": "min"},
      {"measurement": "AIF half-life", "setting": "[8]", "result": "less than 1 min"},
      {"measurement": "blood half-life", "setting": "[9]", "result": 10, "unit": "min"}
    ]},
    {"compound": "O=C(O)CN(CC(=O)O)c1ccc(-c2c3cc(F)c(=O)cc-3oc3cc(O)c(F)cc23)cc1OCCOc1cc([N+](=O)[O-])ccc1N(CC(=O)O)CC(=O)O", "note": "[FLUO-5N]", "values": [
      {"measurement": "Kd", "setting": "[10]", "result": 0.0038, "unit": "nM"},
      {"measurement": "Kd", "setting": "[11]", "result": 0.0052, "unit": "nM"}
    ]},
    {"compound": "CCOc1ccc(CC(CN(CCN(CC(=O)[O-])CC(=O)[O-])CC(=O)[O-])N(CC(=O)[O-])CC(=O)[O-])cc1.[Gd+3].[Na+].[Na+]", "note": "(stereo not shown) [Eovist, Gd-EOB-DTPA]", "values": [
      {"measurement": "hepatocyte up take", "setting": "[12]", "result": 50, "unit": "%"},
      {"measurement": "retention time in the liver", "setting": "[12]", "result": 30, "unit": "min"},
      {"measurement": "liver uptake phase", "setting": "[9]; in vivo", "result": "approximately 3 min"},
      {"measurement": "tumor detection in same mice model", "setting": "[13]", "result": "No tumor can be detected"},
      {"measurement": "effect on liver signal in T2 weighted MR images", "setting": "[14]", "result": "does not cause such decrease"}
    ]},
    {"compound": "[Gd+3]", "note": "[Free Gd^3+]", "values": [
      {"measurement": "LD50", "setting": "[15]", "result": 0.1, "unit": "mmol/kg"}
    ]},
    {"compound": "CNC[C@H](O)[C@@H](O)[C@H](O)[C@H](O)CO.CNC[C@H](O)[C@@H](O)[C@H](O)[C@H](O)CO.O=C([O-])CN(CCN(CC(=O)[O-])CC(=O)O)CCN(CC(=O)O)C(COCc1ccccc1)C(=O)[O-].[Gd+3]", "note": "(stereo not shown) [Multihance, Gd-BOPTA]", "values": [
      {"measurement": "hepatocyte up take", "setting": "[12]", "result": 5, "unit": "%"},
      {"measurement": "retention time in the liver", "setting": "[12]", "result": 1, "unit": "min"}
    ]}
  ]
}
